Among the data in ChEMBL document CHEMBL4811216, “Chemotherapy for human schistosomiasis: how far have we come? What's new? Where do we go from here?” (RSC Med Chem, 2020) are Activity, mortality and IC50 values, retold here.

Molecules are shown by their SMILES.

Experiment [1] concerns Schistosoma mansoni. Briefly: Antischistosomal activity against Schistosoma mansoni assessed as worm death at 50 uM in presence of red blood cells relative to control. It counts as functional.
Experiment [2] concerns Schistosoma mansoni. The experiment can be described thus: Antischistosomal activity against larva Schistosoma mansoni infected in ICR mouse assessed as reduction in worm burden at 8 mg/kg, ip administered for 5 consecutive days. It counts as functional. Further details: scale not given: the % may be the effect or the level left.
Experiment [3] has as its system Schistosoma japonicum. The experiment can be described thus: Antischistosomal activity against larva Schistosoma japonicum infected in ICR mouse assessed as reduction in worm burden at 8 mg/kg, ip administered for 5 consecutive days. It counts as functional. Further details: scale not given: the % may be the effect or the level left.
For experiment [4], the system named is Schistosoma mansoni. The experiment can be described thus: Antischistosomal activity against adult Schistosoma mansoni infected in ICR mouse assessed as reduction in worm burden at 8 mg/kg, ip administered for 5 consecutive days. The class given is functional. Further details: scale not given: the % may be the effect or the level left.
For experiment [5], the system named is Schistosoma japonicum. Briefly: Antischistosomal activity against adult Schistosoma japonicum infected in ICR mouse assessed as reduction in worm burden at 8 mg/kg, ip administered for 5 consecutive days. The class given is functional. Further details: scale not given: the % may be the effect or the level left.
In experiment [6] the test system is Schistosoma japonicum. The experiment can be described thus: Antischistosomal activity against juvenile Schistosoma japonicum infected in ICR mouse assessed as reduction in worm burden at 8 mg/kg, ip administered for 5 consecutive days. It counts as functional. More on the design: scale not given: the % may be the effect or the level left.
The subject of experiment [7] is Schistosoma mansoni. The experiment can be described thus: Antischistosomal activity against juvenile Schistosoma mansoni infected in ICR mouse assessed as reduction in worm burden at 8 mg/kg, ip administered for 5 consecutive days. It counts as functional. More on the design: scale not given: the % may be the effect or the level left.
Experiment [8] has as its system Schistosoma mansoni. The experiment can be described thus: Antischistosomal activity against adult Schistosoma mansoni BH infected in Balb/C mouse assessed as reduction in worm burden at 100 mg/kg, po measured after 2 weeks. It counts as functional. Further details: scale not given: the % may be the effect or the level left.
For experiment [9], the system named is Schistosoma mansoni. The experiment can be described thus: Antischistosomal activity against Schistosoma mansoni BH assessed as tegument damage at 3.125 to 25 ug/ml measured up to 120 hrs by inverted microscopic method relative to control. The settings on record: dose 3.125-25 µg/ml; time hrs <=120; at 3.125 to 25 µg/mL. It counts as functional.
For experiment [10], the system named is Schistosoma mansoni. The experiment can be described thus: Antischistosomal activity against Schistosoma mansoni BH assessed as changes in motor activity at 3.125 to 25 ug/ml measured up to 120 hrs by inverted microscopic method relative to control. The settings on record: dose 3.125-25 µg/ml; time hrs <=120; at 3.125 to 25 µg/mL. The class given is functional.

Experiment [11] deals with Schistosoma mansoni. Briefly: Antischistosomal activity against Schistosoma mansoni BH infected in Balb/C mouse assessed as reduction in worm burden at 100 mg/kg, po measured after 2 weeks by Kato-Katz quantitative method. It counts as functional. Conditions: Schistosoma mansoni, BH, po, 336 h.
The test system of experiment [12] is Schistosoma mansoni. The experiment can be described thus: Antischistosomal activity against juvenile Schistosoma mansoni BH infected in Balb/C mouse assessed as reduction in worm burden at 100 mg/kg, po measured after 2 weeks. More on the design: scale not given: the % may be the effect or the level left. The class given is functional.
In experiment [13] the test system is Schistosoma mansoni. The experiment can be described thus: Antischistosomal activity against Schistosoma mansoni BH assessed as worm death at 50 uM measured after 72 to 120 hrs by inverted optical microscopic method relative to control. It counts as functional. The settings on record: time 72-120 hrs.
Experiment [14] has as its system Schistosoma mansoni. Briefly: Antischistosomal activity against adult Schistosoma mansoni BH assessed as tegument damage at 150 to 200 ug/ml incubated for 120 hrs measured every 24 hrs by light microscopy relative to control. Conditions: dose 150-200 µg/ml, at 150 to 200 µg/mL. It counts as functional.
For experiment [15], the system named is Schistosoma mansoni. Briefly: Antischistosomal activity against juvenile Schistosoma mansoni BH infected in Balb/C mouse assessed as reduction in worm burden at 40 mg/kg, po administered at 21 days post infection and measured at 15 days post treatment relative to control. The class given is functional. Further details: scale not given: the % may be the effect or the level left. The settings on record: time 15 day.

The test system of experiment [16] is Schistosoma mansoni. Briefly: Antischistosomal activity against adult Schistosoma mansoni BH infected in Balb/C mouse assessed as reduction in number of eggs at 40 mg/kg, po administered at 45 days post infection and measured at 15 days post treatment relative to control. The settings on record: time 15 day. Further details: scale not given: the % may be the effect or the level left. The class given is functional.

Experiment [17] concerns Schistosoma mansoni. Briefly: Antischistosomal activity against adult Schistosoma mansoni BH infected in Balb/C mouse assessed as reduction in worm burden at 40 mg/kg, po administered at 45 days post infection and measured at 15 days post treatment relative to control. It counts as functional. More on the design: scale not given: the % may be the effect or the level left. The settings on record: time 15 day.

Experiment [18] concerns Schistosoma mansoni. The experiment can be described thus: Antischistosomal activity against adult Schistosoma mansoni BH assessed as worm death at 150 to 200 ug/ml incubated for 120 hrs measured every 24 hrs by light microscopy relative to control. The class given is functional. The settings on record: dose 150-200 µg/ml, at 150 to 200 µg/mL.
In experiment [19] the test system is Schistosoma mansoni. The experiment can be described thus: Antischistosomal activity against adult Schistosoma mansoni BH assessed as reduction in motor activity at 150 to 200 ug/ml incubated for 120 hrs measured every 24 hrs by light microscopy relative to control. The class given is functional. Further details: scale not given: the % may be the effect or the level left. The settings on record: dose 150-200 µg/ml, at 150 to 200 µg/mL.

Experiment [20] concerns Schistosoma mansoni. Briefly: Antischistosomal activity against Schistosoma mansoni Liberian NTS at 10 uM measured after 24 hrs relative to control. It counts as functional.
Experiment [21] has as its system Schistosoma japonicum. Briefly: Antischistosomal activity against Schistosoma japonicum assessed as worm death at 10 uM incubated for 120 hrs relative to control. It counts as functional. Conditions: Schistosoma japonicum.
For experiment [22], the system named is Schistosoma mansoni. Briefly: Antischistosomal activity against adult Schistosoma mansoni assessed as worm death at 10 uM incubated for 144 hrs relative to control. It counts as functional.
In experiment [23] the test system is Schistosoma haematobium. The experiment can be described thus: Antischistosomal activity against Schistosoma haematobium assessed as worm death at 10 uM incubated for 120 hrs relative to control. It counts as functional.
Experiment [24] relates to Schistosoma mansoni. The experiment can be described thus: Antischistosomal activity against Schistosoma mansoni Schistosomula assessed as worm death at 10 uM incubated for 24 hrs relative to control. It counts as functional.
Experiment [25] has as its target T1, Thioredoxin glutathione reductase (Schistosoma mansoni, UniProt Q962Y6).
T1 sequence (Q962Y6 whole entry): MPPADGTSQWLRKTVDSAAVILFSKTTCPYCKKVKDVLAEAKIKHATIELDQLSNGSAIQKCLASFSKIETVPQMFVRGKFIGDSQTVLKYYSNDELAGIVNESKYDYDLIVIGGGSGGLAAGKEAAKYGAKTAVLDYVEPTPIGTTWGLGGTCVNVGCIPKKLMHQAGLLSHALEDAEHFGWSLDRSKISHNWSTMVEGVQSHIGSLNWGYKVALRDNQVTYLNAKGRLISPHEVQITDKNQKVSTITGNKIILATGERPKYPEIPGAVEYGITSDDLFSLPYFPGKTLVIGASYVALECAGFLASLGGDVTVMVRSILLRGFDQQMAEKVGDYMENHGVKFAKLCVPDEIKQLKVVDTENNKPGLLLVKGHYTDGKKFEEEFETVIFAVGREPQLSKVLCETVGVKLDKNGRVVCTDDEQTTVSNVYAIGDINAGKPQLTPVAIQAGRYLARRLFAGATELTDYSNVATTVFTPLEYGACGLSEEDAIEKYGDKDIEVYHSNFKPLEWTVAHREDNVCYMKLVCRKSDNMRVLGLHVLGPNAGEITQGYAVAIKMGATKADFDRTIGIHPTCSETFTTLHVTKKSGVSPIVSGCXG
The experiment can be described thus: Inhibition of Schistosoma mansoni thioredoxin glutathione reductase incubated for 30 mins by DTNB assay.

For experiment [26], the system named is Schistosoma mansoni. The experiment can be described thus: Antischistosomal activity against juvenile Schistosoma mansoni assessed as worm death at 10 uM incubated for 72 hrs relative to control. The class given is functional.
The subject of experiment [27] is Schistosoma mansoni. The experiment can be described thus: Antischistosomal activity against juvenile Schistosoma mansoni assessed as worm death at 10 uM incubated for 120 hrs relative to control. It counts as functional.
Experiment [28] relates to Schistosoma haematobium. The experiment can be described thus: Antischistosomal activity against Schistosoma haematobium assessed as worm death at 10 uM incubated for 144 hrs relative to control. The class given is functional.
Experiment [29] relates to Schistosoma mansoni. Briefly: Antischistosomal activity against adult Schistosoma mansoni assessed as worm death at 10 uM incubated for 120 hrs relative to control. It counts as functional.
Experiment [30] deals with Schistosoma mansoni. Briefly: Antischistosomal activity against Schistosoma mansoni miracidia assessed as worm death incubated for 1 to 2 hrs by microscopic method relative to control. It counts as functional. Conditions: time 1-2 hrs.
Experiment [31] concerns Schistosoma mansoni. The experiment can be described thus: Antischistosomal activity against Schistosoma mansoni cercariae assessed as worm death incubated for 2 hrs by microscopic method relative to control. It counts as functional.

As for `CC1=C(Cc2ccc(C(F)(F)F)cc2)C(=O)c2cc(C)cnc2C1=O`, in the experiment on Schistosoma mansoni [1], the Activity amounted to 100%.
For the molecule `C[C@@H]1O[C@@H](O[C@@H]2C[C@@H](O[C@@H]3O[C@H](CO)[C@@H](O)[C@H](O)[C@H]3O)CO[C@H]2O[C@H]2CC[C@]3(C)[C@H]4CC=C5[C@@H]6CC(C)(C)CC[C@]6(C(=O)O)CC[C@@]5(C)[C@]4(C)CC[C@H]3C2(C)C)[C@H](O)[C@H](O)[C@H]1O`, the Activity turned out to be 88.6% in the experiment on Schistosoma mansoni [2]; 90% with Schistosoma japonicum [3]; 70.6% with Schistosoma mansoni [4]; 53.2% in the experiment on Schistosoma japonicum [5]; 59.9% in the experiment with Schistosoma japonicum [6]; 68.3% in the experiment on Schistosoma mansoni [7].
As usually defined, the mortality is the percentage killed. In the case of `Cn1cncc1C[C@H]1CCC(=O)[C@H]1C(O)c1ccccc1` (some centres undefined), the Activity with Schistosoma mansoni [8] stood at 60.6%; with Schistosoma mansoni [9], 100%; with Schistosoma mansoni [10], 100%; in the experiment with Schistosoma mansoni [12], 58%. For the same molecule, the mortality at 100 mg/kg with Schistosoma mansoni [11] was 64.1%.
Turning to `O=C1CS/C(=N\N=C/c2cccc3c2OCO3)N1c1ccc(Br)cc1`, the Activity in the experiment with Schistosoma mansoni [13] was determined as 83.3%.
In the case of `Cn1cnc(C[C@H]2CCC(=O)[C@@H]2[C@H](O)c2ccccc2)c1`, the Activity in the experiment on Schistosoma mansoni [14] was 100%; in the experiment with Schistosoma mansoni [15], 50.2%; with Schistosoma mansoni [16] it was 80%; in the experiment on Schistosoma mansoni [17], 70%; with Schistosoma mansoni [19], 100%; in the experiment on Schistosoma mansoni [20] it was 100%. Also, in the experiment with Schistosoma mansoni [18], the mortality was determined as 100%.
Usually IC50 stands for the concentration that gives 50% inhibition. `O=[N+]([O-])c1ccc2c(c1)S(=O)(=O)C=C2`: the mortality at 10 µM in the experiment on Schistosoma japonicum [21] worked out at 69%; in the experiment on Schistosoma mansoni [22] it was 76%; with Schistosoma haematobium [23] it was 85%; in the experiment on Schistosoma mansoni [24] it was 100%; in the experiment on Schistosoma mansoni [26], 100%. Also, in experiment [25], inhibition was half-maximal at 2010 nM (IC50).
With `COC(=O)CS(=O)(=O)c1nnc(C(Cc2ccccc2)NC(=O)OC(C)(C)C)o1` (centres undefined), the mortality at 10 µM in the experiment with Schistosoma japonicum [21] is 65%; in the experiment on Schistosoma mansoni [27], 39%; in the experiment with Schistosoma mansoni [24], 99%; in the experiment on Schistosoma haematobium [28], 67%; in the experiment with Schistosoma mansoni [29], 62%. This molecule also registered an IC50 in experiment [25] of 330 nM.
Take `CC1=CC(=O)CC(C)(C)C1(O)/C=C/C(C)O[C@@H]1O[C@H](COC(=O)c2cc(O)c(O)c(O)c2)[C@@H](O)[C@H](O)[C@H]1O` (some centres undefined): the results for the mortality in the experiment on Schistosoma mansoni [30] and with Schistosoma mansoni [31] were 99.7% and 41%, respectively.
